Laboratory results: patent US4927975A, “Process for preparing certain decahydro-7H-3-ol-7-ones” (Roussel Uclaf, priority 1981, dated 1990)

Columns and labels:
[1] = test system: costovertebral organ of hamsters; experiment: Costovertebral organ study repeated with female hamsters (antiandrogenic activity, topical); assay type: in vivo; conditions: for inhibition of the weight increase of the organ: right costovertebral organ, topical 5 mg/day
Experimental: (§1) Male golden hamsters weighing 100 to 110 g castrated 7 days earlier received a subcutaneous injection of 125 μg per day and per animal of testosterone propionate in 0.2 ml of a sesame oil solution containing 0.5% of benzyl alcohol. One group of animals received also a treatment by topical application of an ethanol solution of the test compound on the right costovertebral organ and the left costovertebral organ received only ethanol. The treatment lasted for 8 days and 24 hours after the last, the costovertebral organs and the prostate were removed and weighed.
The study was repeated with female hamsters to test the antiandrogenic activity of the compounds of Examples 7 and 13 at a dose of 5 mg/day and the results are reported in Table III.
The test was repeated on female hamsters to determine the antiandrogenic activity of the compounds of Examples 13 to 17 at 1 mg/day and the results are reported in Table IV.

[2] = test system: costovertebral organ of hamsters; experiment: In vivo study with costovertebral organ of hamsters (male, castrated, testosterone propionate-treated, topical test product); set-up: species or system Male golden hamsters; conditions: for Control Gland in mg / Treated Gland in mg: Table II, 8 days; for Control Gland in mg: left costovertebral organ (ethanol only), testosterone propionate s.c. alone or + product B 1 mg/day; for Treated Gland in mg: testosterone propionate s.c. alone or + product B 1 mg/day topical
Experimental: (§2) B. In vivo study with costovertebral organ of hamsters
as §1

prostate = experiment: In vivo study with hamsters: prostate weight (male, castrated, testosterone propionate-treated, topical test product); set-up: species or system Male golden hamsters; conditions: for Prostate in mg: Table II, testosterone propionate s.c. alone or + product B 1 mg/day topical, 8 days
Experimental: as §2, §1

male mice = experiment: Acute toxicity in male mice; assay type: in vivo; conditions: 7th day
Experimental: Five male mice weighing 18 to 20 g received an intraperitoneal or oral administration of decreasing doses of product B in aqueous solution containing 0.25% of carboxymethyl cellulose and 0.2% of Tween at 1000, 600 or 400 mg/kg and the number of dead mice was determined on the 7th day. The DLo or the more elevated dose at which no mortality was observed was determined to be 400 mg/kg intraperitoneally and 1000 mg/kg orally for product B.

[3] = Table III, testosterone propionate alone or + product 5 mg/day
[4] = Table III, testosterone propionate alone or + product 5 mg/day topical
[5] = Table IV, testosterone propionate alone or + product 1 mg/day
[6] = Table IV, testosterone propionate alone or + product 1 mg/day topical

In the case of `CCCC(=O)O[C@H]1CCC2C3CCC(=O)C(CC)=C3CC[C@@]21C` (stereo partly shown) [Example 7, Butanoate of 3aβ-methyl-6-ethyl-7-oxo-1,2,3,3a,4,5,8,9,9a,9b-decahydro-1H-benz(e)-inden-3-yl], the “Control Gland in mg” value [1, 3] is reported as 9,5 ± 0,8 mg, the “Treated Gland in mg” value [1, 4] is reported as 4,5 ± 0,4 mg and the “inhibition of the weight increase of the organ” value [1] is reported as 90%.

`CCC1=C2CC[C@@]3(C)C(CC[C@@H]3OC(C)=O)C2CCC1=O` (stereo partly drawn) [Example 13, 3β-acetoxy-3aβ-methyl-6-ethyl-1,2,3,3a,4,5,8,9,9a,9b-decahydro-7H-benz(e)-inden-7-one] was tested, and the “Control Gland in mg” value [1, 3] was 10,8 ± 2,1 mg, the “Treated Gland in mg” value [1, 4] was 3,9 ± 0,4 mg and the “% inhibition of weight increase” value ([1]; Table IV, 1 mg/day topical) was 61%. For the same compound, the “Control Gland in mg” value [1, 5] was 9,9 ± 1,6 mg, the “Treated Gland in mg” value [1, 6] was 6,0 ± 0,2 mg and the “inhibition of the weight increase of the organ” value [1] was 95.6%.

`CCC1=C2CC[C@@]3(C)C(CC[C@@H]3O)C2CCC1=O` (stereo partly drawn) [Product B, 3aβ-methyl-6-ethyl-1,2,3,3a,4,5,8,9,9a,9b-decahydro-7-H-benz(e)-inden-3β-ol-7-one] was tested, and the “Control Gland in mg” value [2] was 41,8 ± 5,2 mg, the “Treated Gland in mg” value ([2]; right costovertebral organ) was 17,1 ± 2,2 mg and the “antagonism of the effect of testosterone propionate on the untreated gland” value ([2]; left (untreated) gland, product applied locally to right costovertebral organ) was “did not antagonize the effect of testosterone propionate on the untreated gland”. The “inhibition in the weight increase of the organ” value ([2]; right costovertebral organ, male hamsters, topical 1 mg/day) was 61%, the Prostate in mg (prostate) was 80,1 ± 9,3 mg and the systemic effect (prostate; inferred from untreated gland and prostate after local application) was “does not have a systemic effect”. The “antagonism of the effect of testosterone propionate on the prostate” value (prostate; product applied locally to right costovertebral organ) was “did not antagonize the effect of testosterone propionate on the untreated gland or the prostate”, the “DLo (more elevated dose at which no mortality was observed)” value (male mice; intraperitoneal) was 400 mg/kg and the “DLo (more elevated dose at which no mortality was observed)” value (male mice; oral) was 1000 mg/kg.

For `CCC(=O)O[C@H]1CC[C@H]2[C@@H]3CCC4=CC(=O)CC[C@]4(C)[C@H]3CC[C@]12C` [Testosterone Propionate, testosterone propionate, reference compound], the “Control Gland in mg” value [2] was 35,8 ± 5,0 mg, the “Treated Gland in mg” value ([2]; right costovertebral organ) was 33,91 ± 2,9 mg and the Prostate in mg (prostate) was 79,5 ± 5,5 mg. The “Control Gland in mg” value [1, 3] was 15,8 ± 1,0 mg, the “Treated Gland in mg” value [1, 4] was 14,9 ± 1,1 mg and the “Control Gland in mg” value [1, 5] was 11,0 ± 2,0 mg. The “Treated Gland in mg” value [1, 6] was 10,2 ± 0,6 mg.
